The values below come from patent US10072034B2, “Kinase inhibitors” (Respivert Limited, priority 2016, dated 2018).

Molecules are shown by their SMILES. Values after ≈ are worked out from the molar mass of the structure shown. Structures can show the parent of a compound that is named as a salt. Where two headings read alike, the source gives them in different places.

As usually defined, the IC50 is the concentration at which inhibition is half-maximal. Low values mean higher potency, high ones lower potency.

One series concerns IL-8 release in PBMCs. Description: LPS-induced IL-8 release in PBMC cells (assay (b)). Type of series: cell-based. As to conditions: Homo sapiens, LPS-stimulated PBMCs. The source says: Peripheral blood mononuclear cells (PBMCs) from healthy subjects are separated from whole blood using a density gradient (Lymphoprep, Axis-Shield Healthcare). […] The supernatant is harvested for determination of IL-8 and TNFα concentrations by sandwich ELISA (Duo-set, R&D systems) and read on the fluorescence microplate reader (Varioskan® Flash, ThermoFisher Scientific).

Series [1] is described as follows: Solubility in fasted-state simulated colonic fluid (FaSSCoF) at pH 6.5. It is filed as physicochemical. As to conditions: pH 6.5, 25° C.; for solubility thermodynamic at 24 h: fasted-state simulated colonic fluid (FaSSCoF), 25 °C, pH 6.5, fassgf or other biorelevant, thermodynamic from solid. The protocol:
The solubilities of compounds of the invention in FaSSCoF at pH 6.5 are determined using a modification of a previously-reported procedure (Vertzoni, M., et al. Pharm. Res. 2010, 27, 2187-2196). In place of the bile salt extract employed in the original procedure (which extract is no longer available), the modified procedure uses a mixture of sodium taurocholate (0.15 g), glycocholic acid (0.15 g), ursodeoxycholic acid (0.05 g), cholic acid (0.05 g), and glycodeoxycholic acid (0.05 g). These five bile acids are ground together with a mortar and pestle to produce a fine white powder that is incorporated into the FaSSCoF, as outlined below.
FaSSCoF medium: Tris(hydroxymethyl)aminomethane (Tris; 0.275 g) and maleic acid (0.44 g) are dissolved in water (35 mL) to give a solution whose pH is adjusted to 6.5 by treatment with 0.5M NaOH (ca. 12 mL). The solution is then made up to 50 mL with water. A portion of this Tris/maleate buffer solution (ca. 25 mL) is added to a 0.5 L round-bottomed flask, before being treated with 0.00565 g of the bile acid mixture described above. Solutions of phosphatidylcholine (0.0111 g) in DCM (0.15 mL) and palmitic acid (0.0013 g) in DCM (0.15 mL) are added, then the organic solvent is evaporated off under reduced pressure at 40° C. until a clear solution, with no perceptible DCM odour, is achieved. The volume of the evaporated solution is adjusted to 50 mL by addition of the remainder of Tris/maleate buffer, then BSA (0.115 g) is added, before being dissolved by gentle agitation.
Solubility Determination: Test compounds are suspended in the pH 6.5 FaSSCoF medium to give a maximum final concentration of 2-10 mg/mL. The suspensions are equilibrated at 25° C. for 24 h, before being filtered through a glass fibre C filter. The filtrates are then diluted as appropriate for injection and quantification by HPLC with reference to a standard. Different volumes of the standard, diluted and undiluted sample solutions are injected and the solubilities are calculated using the peak areas determined by integration of the peak found at the same retention time as the principal peak in the standard injection.

Where [2] appears, read: Run 1, read-out: pH 6.5 FaSSCoF Solubility Run 1.
The mark [3] stands for this setting: Run 2, read-out: pH 6.5 FaSSCoF Solubility Run 2.

Take `[2H]C([2H])([2H])Oc1c(NC(=O)Nc2ccc(Oc3ccnc(Nc4cc(OC)cc(OCCOCCOCC(=O)O)c4)c3)c3ccccc23)cc(C(C)(C)C)cc1NS(C)(=O)=O` [Example 5, 2-(2-(2-(3-((4-((4-(3-(5-(tert-Butyl)-2-(methoxy-d3)-3-(methylsulfonamido)phenyl)ureido)-naphthalen-1-yl)oxy)pyridin-2-yl)amino)-5-methoxyphenoxy)ethoxy)ethoxy)acetic acid]: inhibition in the series on IL-8 release in PBMCs was half-maximal at 19.5 nM (IC50).

In the series on IL-8 release in PBMCs, `COc1cc(Nc2cc(Oc3ccc(NC(=O)Nc4cc(C(C)(C)C)cc(NS(C)(=O)=O)c4OC)c4ccccc34)ccn2)cc(OCCOCC2CC(C(=O)O)CO2)c1` (centres unmarked) [Example 13, 5-((2-(3-((4-((4-(3-(5-(tert-Butyl)-2-methoxy-3-methylsulfonamido)phenylureido)naphthalen-1-yl)oxy)pyridin-2-yl)amino)-5-methoxyphenoxy)ethoxy)methyl)tetrahydrofuran-3-carboxylic acid] registered an IC50 of 2.8 nM.

In the series with IL-8 release in PBMCs, `COc1cc(Nc2cc(Oc3ccc(NC(=O)Nc4cc(C(C)(C)C)cc(NS(C)(=O)=O)c4OC)c4ccccc34)ccn2)cc(OCCOCCn2cc(C(=O)O)cn2)c1` [Example 22] displayed an IC50 of 18.1 nM.

Turning to `COc1cc(Nc2cc(Oc3ccc(NC(=O)Nc4cc(C(C)(C)C)on4)c4ccccc34)ccn2)cc(OCCOCCOCC(=O)O)c1` [Example 17, 2-(2-(2-(3-((4-((4-(3-(5-(tert-Butyl)isoxazol-3-yl)ureido)naphthalen-1-yl)oxy)pyridin-2-yl)amino)-5-methoxyphenoxy)ethoxy)ethoxy)acetic acid], the solubility thermodynamic at 24 h in series [1] (setting [2]) was 1700 µg/mL (≈ 2480 µM); in series [1] (setting [3]), 1500 µg/mL (≈ 2190 µM).

Consider `COc1cc(Nc2cc(Oc3ccc(NC(=O)Nc4cc(C(C)(C)C)cc(NS(C)(=O)=O)c4OC)c4ccccc34)ccn2)cc(OCCOCCOC(C)C(=O)O)c1` (single isomer, unassigned) [20(a)], for which the solubility thermodynamic at 24 h in series [1] (setting [2]) was 620 µg/mL (≈ 745 µM); in series [1] (setting [3]) it was 640 µg/mL (≈ 769 µM).

As for `COc1cc(Nc2cc(Oc3ccc(NC(=O)Nc4cc(C(C)(C)C)cc(NS(C)(=O)=O)c4OC)c4ccccc34)ccn2)cc(OCCOCc2ccc(C(=O)O)s2)c1` [Example 26], in the series on IL-8 release in PBMCs, the IC50 was 15.3 nM.

Turning to `COc1cc(Nc2cc(Oc3ccc(NC(=O)Nc4cc(C(C)(C)C)cc(NS(C)(=O)=O)c4OC)c4ccccc34)ccn2)cc(OCCOCc2cc(C(=O)O)co2)c1` [Example 12, 5-((2-(3-((4-((4-(3-(5-(tert-Butyl)-2-methoxy-3-(methylsulfonamido)phenyl)ureido)naphthalen-1 yl)oxy)pyridin-2-yl)amino)-5-methoxyphenoxy)ethoxy)methyl)furan-3-carboxylic acid], the IC50 in the series with IL-8 release in PBMCs turned out to be 5.6 nM.

`COc1cc(Nc2cc(Oc3ccc(NC(=O)Nc4cc(C(C)(C)C)cc(NS(C)(=O)=O)c4OC)c4ccccc34)ccn2)cc(OCCOCC(=O)O)c1` [Example 24] yielded an IC50 with IL-8 release in PBMCs of 61.9 nM.

With `CCS(=O)(=O)Nc1cc(C(C)(C)C)cc(NC(=O)Nc2ccc(Oc3ccnc(Nc4cc(OC)cc(OCCOCCOCC(=O)O)c4)c3)c3ccccc23)c1OC` [Example 16], the IC50 in the series with IL-8 release in PBMCs is 16.3 nM.

The compound `COc1cc(Nc2cc(Oc3ccc(NC(=O)Nc4cc(C(C)(C)C)cc(NS(C)(=O)=O)c4OC)c4ccccc34)ccn2)cc(OCCOCCSCC(=O)O)c1` [Example 19, 2-((2-(2-(3-((4-((4-(3-(5-(tert-Butyl)-2-methoxy-3-(methylsulfonamido)phenyl)ureido)-naphthalen-1-yl)oxy)pyridin-2-yl)amino)-5-methoxyphenoxy)ethoxy)ethyl)thio)acetic acid] had an IC50 in the series with IL-8 release in PBMCs of 2.9 nM. The solubility thermodynamic at 24 h in series [1] (setting [2]) and in series [1] (setting [3]) was 30 µg/mL (≈ 36 µM) in each case.

For the compound `CCS(=O)(=O)c1cc(C(C)(C)C)cc(NC(=O)Nc2ccc(Oc3ccnc(Nc4cc(OC)cc(OCCOCCOCC(=O)O)c4)c3)c3ccccc23)c1OC` [Example 15], the IC50 with IL-8 release in PBMCs came to 16.4 nM.

For `COc1cc(Nc2nccc(Oc3ccc(NC(=O)Nc4cc(C(C)(C)C)cc(NS(C)(=O)=O)c4OC)c4ccccc34)n2)cc(OCCOCCOCCC(=O)O)c1` [Reference Compound A (sodium salt), reference compound], the solubility thermodynamic at 24 h in series [1] (Run 3, read-out: pH 6.5 FaSSCoF Solubility Run 3) is 30 µg/mL; in series [1] (Run 4, read-out: pH 6.5 FaSSCoF Solubility Run 4) it was 30 µg/mL. For the same compound, in series [1] (24 h, Run 1), the “pH 6.5 FaSSCoF Solubility Run 1” value is given as 0.18 mg/mL. Moreover, in series [1] (24 h, Run 2), the “pH 6.5 FaSSCoF Solubility Run 2” value is on record as 0.12 mg/mL.

With `COc1cc(Nc2cc(Oc3ccc(NC(=O)Nc4cc(C(C)(C)C)cc(NS(C)(=O)=O)c4OC)c4ccccc34)ccn2)cc(OCCOCCOC(C)C(=O)O)c1` (centres unmarked) [Example 14], the solubility thermodynamic at 24 h in series [1] (setting [2]) was 1200 µg/mL (≈ 1440 µM); in series [1] (setting [3]), 1100 µg/mL (≈ 1320 µM).

`COc1cc(Nc2cc(Oc3ccc(NC(=O)Nc4cc(C(C)(C)C)cc(NS(C)(=O)=O)c4OC)c4ccccc34)ccn2)cc(OCCOCCOCC(=O)NS(=O)(=O)N(C)C)c1` [Example 25]: in the series on IL-8 release in PBMCs, the IC50 is 26.3 nM.

In the series on IL-8 release in PBMCs, `COc1cc(Nc2cc(Oc3ccc(NC(=O)Nc4cc(C(C)(C)C)cc(S(C)(=O)=O)c4OC)c4ccccc34)ccn2)cc(OCCOCCOCC(=O)O)c1` [Example 9, 2-(2-(2-(3-((4-((4-(3-(5-(tert-Butyl)-2-methoxy-3-(methylsulfonyl)phenyl)ureido)naphthalen-1-yl)oxy)pyridin-2-yl)amino)-5-methoxphenoxy)ethoxy)ethoxy)acetic acid] yielded an IC50 of 11.7 nM. Also, the solubility thermodynamic at 24 h is 460 µg/mL (≈ 573 µM) in series [1] (setting [2]) and 540 µg/mL (≈ 673 µM) in series [1] (setting [3]).

For the compound `COc1c(NC(=O)Nc2ccc(Oc3ccnc(Nc4cc(OCCOCCOCC(=O)O)cc(OC(F)F)c4)c3)c3ccccc23)cc(C(C)(C)C)cc1NS(C)(=O)=O` [Example 28], the IC50 in the series on IL-8 release in PBMCs amounted to 20.6 nM.

`COc1cc(Nc2cc(Oc3ccc(NC(=O)Nc4cc(C(C)(C)C)cc(NS(C)(=O)=O)c4OC)c4ccccc34)ccn2)cc(C(=O)NCCOCCOCC(=O)O)c1` [Example 1, 2-(2-(2-(3-((4-((4-(3-(5-(tert-Butyl)-2-methoxy-3-(methylsulfonamido)phenyl)ureido)-naphthalen-1-yl)oxy)pyridin-2-yl)amino)-5-methoxybenzamido)ethoxy)ethoxy)acetic acid, hydrochloride salt] had an IC50 with IL-8 release in PBMCs of 115 nM.

In the series with IL-8 release in PBMCs, `COc1cc(Nc2cc(Oc3ccc(NC(=O)Nc4cc(C(C)(C)C)cc(NS(C)(=O)=O)c4OC)c4ccccc34)ccn2)cc(OCCOCCOCC(=O)NS(C)(=O)=O)c1` [Example 6] registered an IC50 of 18.1 nM.

In the series with IL-8 release in PBMCs, `COc1cc(Nc2cc(Oc3ccc(NC(=O)Nc4cc(C(C)(C)C)cc(P(C)(C)=O)c4OC)c4ccccc34)ccn2)cc(OCCOCCOCC(=O)O)c1` [Example 10, 2-(2-(2-(3-((4-((4-(3-(5-(tert-Butyl)-3-(dimethylphosphoryl)-2-methoxyphenyl)ureido)-naphthalen-1-yl)oxy)pyridin-2-yl)amino)-5-methoxyphenoxy)ethoxy)ethoxy)acetic acid] displayed an IC50 of 26.5 nM.

In the series on IL-8 release in PBMCs, `COc1cc(Nc2cc(Oc3ccc(NC(=O)Nc4cc(C(C)(C)C)cc(NS(C)(=O)=O)c4OC)c4ccccc34)ccn2)cc(OCCOCCOCc2cc(=O)o[nH]2)c1` [Example 18] came in with an IC50 of 29.3 nM.

Regarding `COc1cc(Nc2cc(Oc3ccc(NC(=O)Nc4cc(C(C)(C)C)cc(NS(C)(=O)=O)c4OC)c4ccccc34)ccn2)cc(OCCOCCOC(C)(C)C(=O)O)c1` [Example 21], the IC50 in the series on IL-8 release in PBMCs came out at 14.4 nM.

With `COc1cc(Nc2cc(Oc3ccc(NC(=O)Nc4cc(C(C)(C)C)cc([S+](C)[O-])c4OC)c4ccccc34)ccn2)cc(OCCOCCOCC(=O)O)c1` (centres unmarked) [Example 8, 2-(2-(2-(3-((4-((4-(3-(5-(tert-Butyl)-2-methoxy)-3-(methylsulfinyl)phenylureido)naphthalen-1-yl)oxy)pyridin-2-yl)amino)-5-methoxyphenoxy)ethoxy)ethoxy)acetic acid], the IC50 in the series with IL-8 release in PBMCs was found to be 8 nM. Moreover, the solubility thermodynamic at 24 h was 2800 µg/mL (≈ 3560 µM) in series [1] (setting [2]) and 3200 µg/mL (≈ 4070 µM) in series [1] (setting [3]).

`COc1cc(Nc2cc(Oc3ccc(NC(=O)Nc4cc(C(C)(C)C)cc(NS(C)(=O)=O)c4OC)c4ccccc34)ccn2)cc(OCCOCc2cc(C(=O)O)cs2)c1` [Example 27]: in the series on IL-8 release in PBMCs, the midpoint of inhibition, the IC50, lay at 7.3 nM.
